A short description of assay [1]: Binding affinity to pseudouridylated H69 50s rRNA (unknown origin) at 20 uM by ESI-MS analysis.
Assay [2] is described as follows: Binding affinity to pseudouridylated H69 50s rRNA (unknown origin) by ESI-MS analysis. The note with it: for Kd: read-out: Kd(app).
Assay [3] can be described thus: Binding affinity to uridylated H69 50s rRNA (unknown origin) by ESI-MS analysis. To be noted: for Kd: read-out: Kd(app).
Assay [4] can be described thus: Binding affinity to pseudouridylated H69 50s rRNA (unknown origin) at 2:1 peptide:RNA ratio by ESI-MS analysis.
Assay [5] can be described thus: Binding affinity to uridylated H69 50s rRNA (unknown origin) at 2:1 peptide:RNA ratio by ESI-MS analysis. The note with it: read-out: Kd(app).
Assay [6] can be described thus: Binding affinity to pseudouridylated H69 50s rRNA (unknown origin) at 1:1 peptide:RNA ratio by ESI-MS analysis.
The nature of assay [7]: Selectivity ratio for uridylated H69 50s rRNA (unknown origin) to pseudouridylated H69 50s rRNA (unknown origin).
Assay [8] is described as follows: Binding affinity to 5'-biotin labeled pseudouridylated H69 50s rRNA (unknown origin) by ESI-MS analysis. The note with it: read-out: Kd(app).
The nature of assay [9]: Binding affinity to 5'-biotin labeled pseudouridylated H69 50s rRNA (unknown origin) at 2:1 peptide:RNA ratio by ESI-MS analysis. To be noted: read-out: Kd(app).
Assay [10] is described as follows: Binding affinity to 5'-biotin labeled uridylated H69 50s rRNA (unknown origin) by ESI-MS analysis.
Assay [11] is described as follows: Binding affinity to MS2-tagged 50s rRNA A-site in Escherichia coli BL21(DE3) by single molecule FRET assay.

Activity calls are given as the source filed them. The rule behind the calls is not given here. A value given as a limit tells only on which side of the number the result lay.

As to H-NQVAHAQ-NH2, in assay [1], the outcome was inactive.
On to H-RQVANHQ-NH2, for which the Kd in assay [2] was found to be 2.1 µM; in assay [3], 10 µM.
Take H-NQVANRQ-NH2: the Kd in assay [2] worked out at 4.5 µM; in assay [3], 14.4 µM.
As for H-NQVRNHQ-NH2, the Kd in [2] is > 20 µM; in assay [3], 21.7 µM.
In the case of H-NQVAAHQ-NH2, the “Kd(app)” value in [2] is “inactive”. For the same compound, the Kd in assay [3] is 14.3 µM.
On to H-NQAANHQ-NH2, for which the values for the Kd in assay [4] (read-out: Kd(app)) and in [5] were 5 µM and 1 µM, respectively. For the same compound, the result in assay [6] was Active. Further, in assay [7], the Selectivity ratio was 23.
On to H-NQVANHA-NH2, for which the Kd came out at 13.4 µM in [2] and 47.5 µM in [3].
H-NQVANAQ-NH2: the “Kd(app)” value in assay [2] and in [3] was “inactive” throughout.
In the case of H-NQVANHR-NH2, the Kd in [3] was 20.5 µM; in assay [8], 31.8 µM.
In the case of H-NQVANAH-NH2, in assay [2], the Kd is > 20 µM.
In the case of H-NAVANHQ-NH2, the Kd in assay [2] was 4.6 µM; in assay [3], 52.8 µM.
Turning to H-NQVANHQ-NH2, the Kd in [2] is 4.6 µM; in assay [3], 22.9 µM; in [8], 3.1 µM.
H-NRVANHQ-NH2: the values for the Kd in assay [2] and in assay [3] were > 40 µM and 35.5 µM, respectively.
Turning to H-NQVANHH-NH2, the Kd in assay [2] is > 20 µM.
Same read-out and setting: the value for H-NQVAHHQ-NH2 was 16 µM.
As for H-NQRANHQ-NH2, the Kd in assay [9] was 6 µM. In assay [10], the “Kd(app)” value is “inactive”. Moreover, the result in [4] and in [6] was Active.
For the compound H-AQVANHQ-NH2, the “Kd(app)” value in assay [2] was “inactive”. Also, the Kd in assay [3] amounted to 9.9 µM.
On the same counts, the results for H-NQVARHQ-NH2 are “inactive” and 16.5 µM.
Regarding `COc1ccc(C[C@H](N)C(=O)N[C@H]2[C@@H](O)[C@H](n3cnc4c(N(C)C)ncnc43)O[C@@H]2CO)cc1` [PUROMYCIN], the Kd in assay [11] was 480 µM.

For the origin of these results see ChEMBL document CHEMBL3822372, “The development of peptide ligands that target helix 69 rRNA of bacterial ribosomes” (Bioorg Med Chem, 2016).
